Patent US6849405B2, “Translation enhancer element of the human amyloid precursor protein gene” (The Brigham and Women's Hospital, Inc., priority 1997, dated 2005)
“Also recorded” adds a separate entry of the source.

Experiments:
ACT-mRNA = assay: Northern blot of ACT-mRNA, astrocytoma cells; format: cell-based, human; conditions: astrocytoma cells, 16 hours of IL-1 stimulation, 48 hours blot exposure
Procedure: Total RNA (10 μg) was extracted from primary astrocytes and astrocytoma cells with a RNA-STAT kit (Tel-Test). RNA samples were denatured in 50% formamide/2.2 M formaldehyde/20 mM MOPS/5 mM sodium acetate/0.5 mM EDTA, pH 7.4, at 60° C. for 10 minutes, electrophoresed on 1.0% agarose-formaldehyde gels, blotted onto Hybond-N filters and immobilized by UV crosslinking and heating filters to 80° C. Filters were prehybridized for 3 hours and hybridized overnight in a solution consisting of 50% formamide, […] denatured salmon sperm DNA, 5×SSC, 0.1% sodium dodecyl sulfate and 5×Denhardt's solution. Following hybridization, filters were washed twice for a total of 1 hour in 2×SSC/0.2% sodium dodecyl sulfate at room temperature and twice each for a total of 1 hour in 0.5×SSC/0.1% sodium dodecyl sulfate at 55° C. Equal loading was verified by ethidium bromide staining, non-specific hybridization of the ACT probe to the 28S rRNA, and by standardized hybridization to the GAPDH cDNA probe as an internal standard. The APP cDNA probe corresponded to the unique internal 1 kb fragment gel purified from the 3 kb APP cDNA (Kang et al. Nature 325: 733 (1987)), the ACT cRNA probe to a PstI/SacI fragment (536-943) in the human ACT cDNA (Chandra, et al., Biochemistry 22: 5055 (1983)) and the GAPDH probe to the human GAPDH gene (Tokunaga, et al., Cancer Res. 47: 5616 (1987)).

[1] = system: L-ferritin subunit synthesis; assay: L-ferritin subunit synthesis, [35S]-methionine labeling and immunoprecipitation, primary astrocytes; format: cell-based; conditions: primary human fetal astrocytes, 0.5 ng/ml, 16 hours
[2] = system: APP protein at the site of the lesion; conditions: injected into rat cerebral cortex; cited from earlier work
[3] = system: H-ferritin subunit synthesis; assay: H-ferritin subunit synthesis, [35S]-methionine labeling and immunoprecipitation, primary astrocytes; format: cell-based; conditions: primary human fetal astrocytes, 0.5 ng/ml, 16 hours

Question: What does the source list for interleukin-1 [IL-1]?
Answer: induction in steady-state levels of ACT-mRNA (ACT-mRNA): 6 fold; up regulation in L-ferritin subunit synthesis [1]: 25%; steady-state levels of APP protein at the site of the lesion [2]: increase the steady-state level of APP-protein; also recorded: increases the steady-state levels of APP protein; up regulation in H-ferritin subunit synthesis [3]: 4 fold
